Data on 27 compounds can be found in article PMC4780864, “Family-wide Structural Analysis of Human Numb-Associated Protein Kinases” (Structure(London, England:1993), 2016).

Experiment in all cases: biochemical
For one assay, the target named is AAK1 (Homo sapiens, UniProt Q2M2I8). Also noted: kinase domain; Thermal shift assay (DSF, SYPRO Orange), 2 uM kinase domain, mean delta Tm of triplicates versus DMSO. The note with it: for ΔTm at 12.5 µM: read-out: AAK1. How it is done:
(§1) All measurements were performed in triplicate and mean values were reported for all compounds (Table S1). […] However, NAKs are often omitted from selectivity panels, including commercial screens.

A further assay has as its target T1, GAK (Homo sapiens, UniProt O14976).
T1 construct: catalytic domain-containing construct
T1 sequence (O14976 1-1311): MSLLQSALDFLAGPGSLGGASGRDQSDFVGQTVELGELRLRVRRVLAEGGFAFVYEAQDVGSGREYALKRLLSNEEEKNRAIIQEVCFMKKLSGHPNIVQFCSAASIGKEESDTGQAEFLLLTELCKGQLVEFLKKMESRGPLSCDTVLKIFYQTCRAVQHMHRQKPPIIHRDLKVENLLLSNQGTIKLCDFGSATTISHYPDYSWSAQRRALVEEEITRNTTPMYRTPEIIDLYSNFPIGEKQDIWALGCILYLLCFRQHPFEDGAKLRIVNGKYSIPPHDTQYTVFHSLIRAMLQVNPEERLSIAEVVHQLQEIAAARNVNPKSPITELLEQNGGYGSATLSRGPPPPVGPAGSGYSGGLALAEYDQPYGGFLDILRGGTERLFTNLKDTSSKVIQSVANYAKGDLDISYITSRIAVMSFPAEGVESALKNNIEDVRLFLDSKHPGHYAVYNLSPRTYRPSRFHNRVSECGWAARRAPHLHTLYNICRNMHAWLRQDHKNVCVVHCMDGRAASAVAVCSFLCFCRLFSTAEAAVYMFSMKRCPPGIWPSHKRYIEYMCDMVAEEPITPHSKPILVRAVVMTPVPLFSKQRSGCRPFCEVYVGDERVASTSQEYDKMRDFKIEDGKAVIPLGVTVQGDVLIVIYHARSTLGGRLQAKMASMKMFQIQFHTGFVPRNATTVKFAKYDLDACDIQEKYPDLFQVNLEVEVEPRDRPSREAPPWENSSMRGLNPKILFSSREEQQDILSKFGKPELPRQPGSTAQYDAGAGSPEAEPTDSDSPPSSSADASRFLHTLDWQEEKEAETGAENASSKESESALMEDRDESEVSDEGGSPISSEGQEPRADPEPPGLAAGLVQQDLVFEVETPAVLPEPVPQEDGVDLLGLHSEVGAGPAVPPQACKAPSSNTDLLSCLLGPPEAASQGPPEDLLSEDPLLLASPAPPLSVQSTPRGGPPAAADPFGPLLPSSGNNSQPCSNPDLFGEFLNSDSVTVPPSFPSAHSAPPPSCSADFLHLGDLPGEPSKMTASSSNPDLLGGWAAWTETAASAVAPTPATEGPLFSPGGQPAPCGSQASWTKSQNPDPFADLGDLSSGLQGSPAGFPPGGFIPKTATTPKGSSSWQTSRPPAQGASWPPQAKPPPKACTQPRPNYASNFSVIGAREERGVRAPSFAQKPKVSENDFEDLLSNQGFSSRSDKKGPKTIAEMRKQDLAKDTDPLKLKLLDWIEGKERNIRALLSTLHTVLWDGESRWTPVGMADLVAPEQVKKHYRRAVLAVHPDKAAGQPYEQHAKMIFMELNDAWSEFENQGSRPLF
Further details: Thermal shift assay (DSF, SYPRO Orange), 2 uM kinase domain, mean delta Tm of triplicates versus DMSO. Conditions: for ΔTm at 12.5 µM: read-out: GAK. How it is done:
as §1

Another assay has as its target T2, MPSK1 (Homo sapiens, UniProt O75716).
T2 construct: gene STK16; catalytic domain-containing construct
Further details: Thermal shift assay (DSF, SYPRO Orange), 2 uM kinase domain, mean delta Tm of triplicates versus DMSO. The note with it: for ΔTm at 12.5 µM: read-out: MPSK1. How it is done:
as §1

The target in another assay is T3, BIKE (Homo sapiens, UniProt Q9NSY1).
T3 construct: gene BMP2K; catalytic domain-containing construct
T3 sequence (Q9NSY1 whole entry, the tested form may be a part): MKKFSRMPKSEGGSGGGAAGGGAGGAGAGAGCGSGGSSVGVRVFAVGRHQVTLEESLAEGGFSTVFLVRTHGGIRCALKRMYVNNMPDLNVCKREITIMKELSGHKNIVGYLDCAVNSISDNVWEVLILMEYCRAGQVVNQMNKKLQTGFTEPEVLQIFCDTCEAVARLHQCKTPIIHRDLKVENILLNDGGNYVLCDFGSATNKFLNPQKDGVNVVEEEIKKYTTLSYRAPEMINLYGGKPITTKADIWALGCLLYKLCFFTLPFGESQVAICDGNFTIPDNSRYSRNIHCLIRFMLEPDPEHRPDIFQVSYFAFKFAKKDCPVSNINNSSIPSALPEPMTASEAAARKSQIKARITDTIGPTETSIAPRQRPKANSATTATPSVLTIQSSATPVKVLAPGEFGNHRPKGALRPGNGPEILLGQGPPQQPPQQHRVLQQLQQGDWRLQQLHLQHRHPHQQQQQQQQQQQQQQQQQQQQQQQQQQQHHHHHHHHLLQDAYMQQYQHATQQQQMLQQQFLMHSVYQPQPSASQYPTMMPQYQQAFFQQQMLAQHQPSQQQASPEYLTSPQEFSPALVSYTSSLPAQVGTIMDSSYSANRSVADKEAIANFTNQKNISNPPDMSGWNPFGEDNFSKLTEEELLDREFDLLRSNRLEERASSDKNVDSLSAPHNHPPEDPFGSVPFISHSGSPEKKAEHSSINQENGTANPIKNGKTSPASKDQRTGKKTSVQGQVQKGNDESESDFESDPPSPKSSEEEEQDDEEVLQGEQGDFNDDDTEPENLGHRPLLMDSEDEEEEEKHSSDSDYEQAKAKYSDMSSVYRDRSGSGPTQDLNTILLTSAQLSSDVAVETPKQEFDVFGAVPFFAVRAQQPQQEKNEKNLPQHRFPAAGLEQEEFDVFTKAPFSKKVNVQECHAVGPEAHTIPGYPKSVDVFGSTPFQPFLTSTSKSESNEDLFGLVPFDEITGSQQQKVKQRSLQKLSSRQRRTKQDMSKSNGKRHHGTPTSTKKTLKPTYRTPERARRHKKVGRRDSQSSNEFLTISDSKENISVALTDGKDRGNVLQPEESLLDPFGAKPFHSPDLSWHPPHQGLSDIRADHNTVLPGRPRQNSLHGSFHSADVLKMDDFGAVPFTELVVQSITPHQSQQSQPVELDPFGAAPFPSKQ
Also noted: Thermal shift assay (DSF, SYPRO Orange), 2 uM kinase domain, mean delta Tm of triplicates versus DMSO. The note with it: read-out: BIKE. How it is done: as §1

Sequence of AAK1 (Q2M2I8 27-365 limits assumed): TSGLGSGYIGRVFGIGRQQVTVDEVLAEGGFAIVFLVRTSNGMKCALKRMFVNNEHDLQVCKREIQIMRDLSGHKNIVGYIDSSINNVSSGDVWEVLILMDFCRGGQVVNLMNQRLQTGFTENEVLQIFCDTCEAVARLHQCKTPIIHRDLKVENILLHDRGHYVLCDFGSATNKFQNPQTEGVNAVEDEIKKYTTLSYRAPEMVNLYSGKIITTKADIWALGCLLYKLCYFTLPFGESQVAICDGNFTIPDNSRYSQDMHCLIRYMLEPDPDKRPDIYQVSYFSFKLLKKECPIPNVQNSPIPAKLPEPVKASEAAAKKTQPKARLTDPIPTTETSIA
T2 sequence (O75716 whole entry, the tested form may be a part): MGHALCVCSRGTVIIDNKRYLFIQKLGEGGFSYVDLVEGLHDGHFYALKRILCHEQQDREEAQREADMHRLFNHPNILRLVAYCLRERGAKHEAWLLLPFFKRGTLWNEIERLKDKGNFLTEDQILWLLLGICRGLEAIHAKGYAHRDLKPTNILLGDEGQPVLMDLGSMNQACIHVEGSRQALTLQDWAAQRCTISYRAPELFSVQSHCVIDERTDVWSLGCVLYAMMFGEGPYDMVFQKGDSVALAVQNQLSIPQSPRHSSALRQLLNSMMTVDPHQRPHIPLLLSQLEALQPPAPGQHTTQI

Consider `COc1ccc(Cl)c(Nc2nc3ccccc3nc2NS(=O)(=O)c2cccc(NC(=O)C(C)(C)N)c2)c1` [Pilaralisib], for which the ΔTm at 12.5 µM on AAK1 was 0.00667 °C; on GAK it was -0.55 °C; on MPSK1, 0.39 °C; on BIKE it was 0.99 °C.

For the compound `O=C(NC[C@H](O)CO)c1ccncc1Nc1ccc(I)cc1F` [Pimasertib], the ΔTm at 12.5 µM at AAK1 was 0.0267 °C; on GAK, -0.59 °C; on MPSK1, 0.313 °C; at BIKE, 0.36 °C.

On to `Cc1ccc(C(=O)Nc2ccc(CN3CCN(C)CC3)c(C(F)(F)F)c2)cc1C#Cc1cnc2cccnn12` [Ponatinib], for which the ΔTm at 12.5 µM at AAK1 was 2.99 °C; on GAK, 13 °C; on MPSK1 it was 2.24 °C; at BIKE it was 2.93 °C.

As for `CC(C)(C)c1cc(NC(=O)Nc2ccc(-c3cn4c(n3)sc3cc(OCCN5CCOCC5)ccc34)cc2)no1` [Quizartinib], the ΔTm at 12.5 µM on AAK1 worked out at 0.43 °C; on GAK it was 0.0333 °C; at MPSK1, 0.333 °C; at BIKE, 0.54 °C.

On to `Cn1c(Nc2ccc(C(F)(F)F)cc2)nc2cc(Oc3ccnc(-c4ncc(C(F)(F)F)[nH]4)c3)ccc21` [RAF265], for which the ΔTm at 12.5 µM on AAK1 came to 1.45 °C; at GAK it was 7.37 °C; at MPSK1, 1.67 °C; at BIKE, 1.07 °C.

Take `Cc1cnc(NC(=O)Nc2cc(Br)c(C)cc2OC[C@@H]2CNCCO2)cn1` [Rabusertib]: the ΔTm at 12.5 µM is 1.55 °C on AAK1, -0.263 °C on GAK, 2.49 °C at MPSK1 and 3.04 °C at BIKE.

Regarding `CC(C)(C)Cn1c(N)nc2ccc(-c3[nH]c(C(C)(C)C)nc3-c3ccc(F)cc3)nc21` [Ralimetinib], the ΔTm at 12.5 µM at AAK1 was found to be 0.397 °C; on GAK it was 9.03 °C; on MPSK1, 1.32 °C; on BIKE, 1.12 °C.

Turning to `CNC(=O)c1cc(Oc2ccc(NC(=O)Nc3cc(C(C)(C)C)nn3-c3ccc4ncccc4c3)c(F)c2)ccn1` [Rebastinib], the ΔTm at 12.5 µM on AAK1 is 0.473 °C; at GAK, 9.94 °C; on MPSK1, 0.907 °C; at BIKE, 0.707 °C.

`COc1cc(F)c(F)c(Nc2ccc(I)cc2F)c1NS(=O)(=O)C1(C[C@H](O)CO)CC1` [Refametinib]: the ΔTm at 12.5 µM is -0.0333 °C on AAK1, -1.26 °C on GAK, 0.663 °C at MPSK1 and -0.02 °C on BIKE.

For the compound `CNC(=O)c1cc(Oc2ccc(NC(=O)Nc3ccc(Cl)c(C(F)(F)F)c3)c(F)c2)ccn1` [Regorafenib], the ΔTm at 12.5 µM is 1.02 °C on AAK1, 5.87 °C on GAK, 0.88 °C on MPSK1 and 0.423 °C at BIKE.

Take `COc1cc(OC)c(/C=C/S(=O)(=O)Cc2ccc(OC)c(NCC(=O)O)c2)c(OC)c1` [Rigosertib]: the ΔTm at 12.5 µM at AAK1 was 0.19 °C; at GAK it was -0.48 °C; at MPSK1 it was 0.583 °C; at BIKE, 0.203 °C.

For the compound `CN(C)C[C@@H]1CCn2cc(c3ccccc32)C2=C(C(=O)NC2=O)c2cn(c3ccccc23)CCO1` [Ruboxistaurin], the ΔTm at 12.5 µM is 5.19 °C at AAK1, 1.03 °C on GAK, 1.86 °C on MPSK1 and 9.4 °C at BIKE.

For the compound `N#CC[C@H](C1CCCC1)n1cc(-c2ncnc3[nH]ccc23)cn1` [Ruxolitinib], the ΔTm at 12.5 µM at AAK1 stood at 6.18 °C; at GAK it was 2.88 °C; at BIKE, 8.65 °C. Moreover, the MPSK1 at MPSK1 (12.5 µM) amounted to 5.233 °C.

Consider `O=C(Nc1ccc2[nH]nc(-c3ccncc3)c2c1)[C@@H]1CCN(CC(=O)N2CCN(c3ccc(-c4ncccn4)cc3)CC2)C1` [SCH772984], for which the ΔTm at 12.5 µM on AAK1 amounted to 0.0767 °C; on GAK, 0.343 °C; on MPSK1, 0.0567 °C; on BIKE, 0.9 °C.

For the compound `CN1CCC(CNc2ccc3ncc(-c4cccc(OC(F)(F)F)c4)n3n2)CC1` [SGI-1776], the ΔTm at 12.5 µM on AAK1 is 6.74 °C; at GAK, 3.81 °C; on MPSK1, 3.24 °C; on BIKE, 10.2 °C.

Turning to `CC(C)(C)c1cnc(CSc2cnc(NC(=O)C3CCNCC3)s2)o1` [SNS-032], the ΔTm at 12.5 µM at AAK1 was found to be 0.69 °C; at GAK, 0.0467 °C; at MPSK1, 3.53 °C; at BIKE, 1.11 °C.

As to `Oc1c2ccccc2c2c3c(cccc13)N=N2` [SP600125], the ΔTm at 12.5 µM stood at 6.88 °C on AAK1, 0.24 °C on GAK, 0.11 °C on MPSK1 and 14.2 °C at BIKE.

`CN1CCN(CCOc2cc(OC3CCOCC3)c3c(Nc4c(Cl)ccc5c4OCO5)ncnc3c2)CC1` [Saracatinib]: the ΔTm at 12.5 µM was 0.31 °C at AAK1, 7.95 °C on GAK, 0.66 °C on MPSK1 and 4.59 °C at BIKE.

Regarding `CC[C@H](CO)Nc1nc(NCc2ccccc2)c2ncn(C(C)C)c2n1` [Seliciclib], the ΔTm at 12.5 µM on AAK1 was 0.393 °C; on GAK, -0.34 °C; at MPSK1 it was 2.4 °C; at BIKE it was 0.43 °C.

As to `Cn1cnc2c(F)c(Nc3ccc(Br)cc3Cl)c(C(=O)NOCCO)cc21` [Selumetinib], the ΔTm at 12.5 µM on AAK1 was 0.343 °C; on GAK, -0.847 °C; on MPSK1, 0.797 °C; at BIKE it was 0.227 °C.

Turning to `C=CCN(/C=C1/C(=O)O[C@H](COC)[C@@]2(C)C1=C(O)C(=O)C1=C2[C@H](OC(C)=O)C[C@]2(C)C(=O)CC[C@@H]12)CC=C` [Sonolisib], the ΔTm at 12.5 µM at AAK1 was -0.183 °C; at GAK, 0.82 °C; on MPSK1 it was 0.147 °C; at BIKE, -1.36 °C.

As for `CNC(=O)c1cc(Oc2ccc(NC(=O)Nc3ccc(Cl)c(C(F)(F)F)c3)cc2)ccn1` [Sorafenib], the ΔTm at 12.5 µM was found to be 1.03 °C on AAK1, 5.42 °C at GAK, 0.873 °C on MPSK1 and 0.73 °C at BIKE.

For `CN1CCN(c2nc(C3=C(c4c[nH]c5ccccc45)C(=O)NC3=O)c3ccccc3n2)CC1` [Sotrastaurin], the ΔTm at 12.5 µM on AAK1 worked out at 1.63 °C; on GAK, 0.62 °C; on MPSK1 it was 1.8 °C; on BIKE, 3.16 °C.

For `CCN(CC)CCNC(=O)c1c(C)[nH]c(/C=C2\C(=O)Nc3ccc(F)cc32)c1C` [Sunitinib], the AAK1 on AAK1 (12.5 µM) was 8.67 °C. Also, on GAK (12.5 µM), the GAK worked out at 4.647 °C. Moreover, the ΔTm at 12.5 µM on MPSK1 is 6.79 °C; at BIKE, 13.9 °C.

For the compound `Cn1c(=O)c(F)c(Nc2ccc(I)cc2F)c2c(=O)n(C[C@@H](O)CO)cnc21` [TAK-733], the ΔTm at 12.5 µM at AAK1 is 0.0367 °C; on GAK it was -0.183 °C; on MPSK1 it was 0.277 °C; at BIKE, 0.177 °C.

`CCS(=O)(=O)c1cccc(-c2cc(C(=O)NC3CCN(C)CC3)c(C)c3[nH]c4ncc(C)cc4c23)c1` [TAK-901]: the ΔTm at 12.5 µM was 5.22 °C on AAK1, 3.35 °C on GAK, 10.7 °C on MPSK1 and 12 °C on BIKE.

In the case of `Cc1cc(C(C)Nc2ccccc2)c2nc(N3CCOCC3)cc(=O)n2c1` (stereo not drawn) [TGX-221], the ΔTm at 12.5 µM at AAK1 is 0.26 °C; at GAK, -0.347 °C; on MPSK1 it was 1.43 °C; on BIKE, 0.5 °C.
